From patent US20130281526A1, “METHOD FOR TREATING IRRITABLE BOWEL SYNDROME WITH DIARRHEA” (SUCAMPO AG, priority 2012, published 2013)

Legend:
[1] = test system: patients with irritable bowel syndrome with diarrhea; test: Weekly responder rate for relief of IBS symptoms (7-point balanced scale) in patients; type: in vivo, human; conditions: 16 mcg per day, responder = moderately or significantly relieved
Source text: The patients who had 25% or more loose or very loose stools during the baseline were enrolled as a patient with irritable bowel syndrome with diarrhea. The patients received placebo or lubiprostone 16 mcg per day.

[2] = test system: patients with irritable bowel syndrome with diarrhea; test: Subject symptom assessments, change from baseline after 12 weeks treatment; type: in vivo, human; conditions: 16 mcg per day for 12 weeks
Method: The patients with irritable bowel syndrome with diarrhea defined in Example 1 received luboiprostone 16 mcg per day for 12 weeks.
The assessments were conducted by the following criterias.
Subject Evaluation of Abdominal Bloating: 0=Absent, 1=Mild, 2=Moderate, 3=Severe, and 4=Very Severe Subject Evaluation of Abdominal. Discomfort/Pain: 0=Absent, 1=Mild, 2=Moderate, 3=Severe, and 4=Very Severe Subject Evaluation of Constipation Severity: 0= Absent, 1=Mild, 2=Moderate, 3=Severe, and 4=Very Severe BM Frequency=(7×Number of BMs)/(Number of days) Subject Evaluation of Bowel Straining: 0=Absent, 1=Mild, 2=Moderate, 3=Severe, and 4=Very Severe

CCCCC(F)(F)[C@@]1(O)CC[C@H]2[C@@H](CC(=O)[C@@H]2CCCCCCC(=O)O)O1 [lubiprostone, (−)-7-[(2R, 4aR, 5R, 7aR)-2-(1,1-difluoropentyl)-2-hydroxy-6-oxooctahydrocyclopenta[b]pyran-5-yl]heptancoic acid]
Weekly Responder Rate ([1]; Week 2): 33.8%
Weekly Responder Rate ([1]; Week 3): 34.9%
Weekly Responder Rate ([1]; Week 4): 34.7%
BM Frequency, change from the baseline after the treatment ([2]; BM Frequency=(7×Number of BMs)/(Number of days), baseline 3.64): 0.36
Abdominal Discomfort/Pain, change from the baseline after the treatment ([2]; score 0=Absent to 4=Very Severe, baseline 2.80): −1.08
Constipation Severity, change from the baseline after the treatment ([2]; score 0=Absent to 4=Very Severe, baseline 3.16): −1.31
Abdominal Bloating, change from the baseline after the treatment ([2]; score 0=Absent to 4=Very Severe, baseline 3.28): −1.37
Bowel Straining, change from the baseline after the treatment ([2]; score 0=Absent to 4=Very Severe, baseline 4.00): −2.00
